The record followed here is US10350315B2, “Quinoline-3-carboxamide compounds and their use in diagnosis” (Westfaelische Wihelms-Universitaet Muenster, priority 2014, dated 2019).

The target of the test is T1, S100A9 (Mus musculus, UniProt P31725).
T1 construct: from tissue; host or cells: living mice (inflamed ear, joints) and explanted mouse heart, aorta and lungs
T1 sequence (P31725 2-113 limits assumed): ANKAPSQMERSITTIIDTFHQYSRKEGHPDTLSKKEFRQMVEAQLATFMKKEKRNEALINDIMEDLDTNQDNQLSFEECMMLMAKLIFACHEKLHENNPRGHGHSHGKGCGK
Nature of the test: Myocardial infarction mouse model, FRI of the explanted heart. In kind it is in vivo, C57BI/6 mouse. The conditions noted are these: one day post LAD occlusion, two hours after i.v. injection of 2 nmol. As for the experimental part:
FIG. 7: Accumulation of Cy5.5-CES271 in a mouse model of myocardial infarction. One day post occlusion of the LAD in a C57BI/6 mouse: FRI of the explanted heart (longitudinal mid-infarction cut) two hours after i.v. injection of 2 nmol Cy5.5-CES271. […] Furthermore, absence of S100A9 in the remote myocardium (RM) is accompanied by the lack of Cy5.5-CES271.
Myocardial infarction was induced by opening the chest of a mouse and transient ligation of the left coronary artery for 60 minutes. The ischemic event triggers acute inflammatory response to the tissue injury in the first hours/days followed by a remodeling process (involving less intense inflammatory processes) after about one week. FRI was performed one day after the surgical intervention to assess the intense acute inflammatory response and the images in FIG. 7 were acquired two hours after injection of 2 nmol Cy5.5-CES-271. […] FRI of the explanted heart (longitudinal mid-infarction cut) two hours after i.v. injection of 2 nmol Cy5.5-CES271 is shown.

Regarding “3-ethyl-2((1E,3E,5E)-5-(3-(1-(5-ethyl-4-hydroxy-1-methyl-2-oxo-1,2-dihydroquinolin-3-yl)-1,15-dioxo-2-phenyl-5,8,11-trioxa-2,14-diazanonadecan-19-yl)-1,1-dimethyl-6,8-disulfonato-1H-benzo[e]indol-2(3H)-ylidene)penta-1,3-dien-1-yl)-1,1-dimethyl-1H-benzo[e]indol-3-ium-6,8-disulfonate [Cy5.5-CES271]”, the “Accumulation in the myocardial infarction (MI)” value is listed as “accumulates in the myocardial infarction” and the “Accumulation in the remote myocardium (RM)” value is given as “lack of Cy5.5-CES271 accumulation”.
